# Measurements as given in patent publication US20130005019A1, “GENETICALLY ENCODED PHOTO CONTROL” (North Carolina State University, priority 2010, published 2013).
# Counter-ions that a name gives are not always drawn.
# Experiments:
# MEK1 [1] = details: C-MEK1-ΔN cells, 10 μM U0126 for 30 min before illumination
# Protocol: (a) HEK293ET cells co-transfected with plasmids encoding PCKRS, pyrrolysyl tRNACUA, C-MEK1-ΔN-HA and EGFP-ERK2 (either TEY, lanes 7 and 8; or AAA, lanes 9 and 10) were grown in medium supplemented with 2 mM of amino acid 1 (lanes 8 and 10) or without (lanes 7 and 9) for 24 h. […] (b) HEK293ET cells co-transfected with plasmids encoding PCKRS, pyrrolysyl tRNACUA, EGFP-ERK2 and either A-MEK1-ΔN-HA (lane 2), or D-MEK1-ΔN-HA (lanes 3-6), or C-MEK1-ΔN-HA (lanes 7-10) were grown in medium supplemented with 2 mM of 1 and 0.1% FBS for 24 h. Cells expressing D-MEK1-ΔN-HA and C-MEK1-ΔN-HA were illuminated with a 365 nm LED lamp for 60 s. Cells were lysed 1, 10 and 60 min after illumination. (c) HEK293ET cells co-transfected with plasmids encoding PCKRS, pyrrolysyl tRNACUA, EGFP-ERK2 and either A-MEK1-ΔN-HA (lane 2), or D-MEK1-ΔN-HA (lanes 3, 5, 6, 9, 10, 13, 14, 17, 18) or C-MEK1-ΔN-HA (lanes 4, 7, 8, 11, 12, 15, 16, 19, 20) were grown in medium supplemented with 2 mM of amino acid 1 and 0.1% FBS for 24 h. […]
# Immunoblotting—Cells were washed with ice-cold phosphate buffer saline (PBS), then lysed with ice-cold universal lysis buffer (Roche) supplemented with protease inhibitors cocktail (Roche), 1 mM sodium vanadate, 5 mM sodium fluoride and 10 mM EDTA. Samples were resolved by SDS-PAGE and analyzed by immunoblotting with appropriate antibodies after transferring to nitrocellulose membranes.
# MEK1 [2] = system: MEK1
# Protocol: ERK2 nucleocytoplasmic shuttling. (a) HEK293ET cells co-expressing C-MEK1-DD and EGFP-ERK2 were illuminated (2 s, 365 nm, 1 mW/cm^2), then 8 minutes after illumination, U0126 (10 μM) was added to block the activity of photoactivated C-MEK1-DD and unveil EGFP-ERK2 efflux from the nucleus. […] Scale bars represent 5 μm. (b) The graph presents the normalized F(n/c) as a function of time after illumination (mean±SD of ten representative cells). The arrow indicates the time when U0126 was added.
# To unveil this compensating process and visualize ERK2 nuclear export, we induced EGFP-ERK2 nuclear translocation by C-MEK1-DD photoactivation, and then blocked MEK1-induced ERK2 nuclear translocation by addition of the MEK1 inhibitor U0126.
# Live cell imaging—Live cells grown in μ-Dish (Ibidi) were imaged at room temperature with an inverted Zeiss LSM 710 Laser Scanning Microscope equipped with a Plan Apochromat 63×/1.4 oil immersion objective. […] The mean nuclear (Fn) and cytoplasmic (Fc) fluorescence intensities were quantified using ImageJ software to enable the F(n/c) ratio to be determined according to the formula: F(n/c)=(Fn−Fb)/(Fc−Fb), where Fb is the mean background fluorescence intensity.
# sfGFP-his6 = assay: Expression of sfGFP-his6 with unnatural amino acid at amber codon 145; type: cell-based, E. coli; details: PCKRS/PyltRNACUA pair, 1 (5 mM), amber codon at position 145
# Protocol: FIG. 3—A. anti His-tag immunoblot of cell extracts from E. coli cells expressing PCKRS/PyltRNACUA and myoglobin with an amber codon at position 4 (pMyo4TAGHis6) in the presence or absence of 1 mM photocaged lysine 1. B. Coomassie stained gel of Ni-NTA purified sfGFP-his6 from cells containing either the MbPylRS/PyltRNACUA pair and grown with ε-Boc-lysine (BocK) (1 mM), or the PCKRS/PyltRNACUA pair and grown with 1 (5 mM). The unnatural amino acid was introduced into sfGFP in response to an amber codon at position 145. […] C. […] A second peak corresponding to myoglobin with a free lysine is also detected (peak B; obtained mass 18396 Da, expected mass 18395.7 Da). […] D. MS/MS fragmentation of tryptic peptide derived from sfGFP(145-1) (the peptide sequence is shown above the spectrum; MH^+ peptide mass 2145.972 Da). The spectrum confirms the incorporation of 1 at codon 145. The fragmentation sites are illustrated above the spectrum. […] E. ESI-MS analysis of myoglobin produced by PCKRS/PyltRNACUA (with 2 mM 1) after photolysis for 0 min, 1 min and 5 min with 365 nm light (A: caged protein mass 18633.0±1.8 Da, expected mass 18631.7 Da; B: uncaged protein mass 18395.4±0.7 Da, expected mass 18395.7).
# To express myoglobin with an incorporated unnatural amino acid, we transformed E. coli DH10B cells with pBKamp-PCKRS and pMyo4TAGPylT-his6. […]
# [3] = Decaging of myoglobin containing 1 by 365 nm photolysis, ESI-MS; type: physicochemical; details: myoglobin containing 1, in vitro
# Protocol: FIG. 3—A. anti His-tag immunoblot of cell extracts from E. coli cells expressing PCKRS/PyltRNACUA and myoglobin with an amber codon at position 4 (pMyo4TAGHis6) in the presence or absence of 1 mM photocaged lysine 1. B. Coomassie stained gel of Ni-NTA purified sfGFP-his6 from cells containing either the MbPylRS/PyltRNACUA pair and grown with ε-Boc-lysine (BocK) (1 mM), or the PCKRS/PyltRNACUA pair and grown with 1 (5 mM). The unnatural amino acid was introduced into sfGFP in response to an amber codon at position 145. […] C. […] A second peak corresponding to myoglobin with a free lysine is also detected (peak B; obtained mass 18396 Da, expected mass 18395.7 Da). […] D. MS/MS fragmentation of tryptic peptide derived from sfGFP(145-1) (the peptide sequence is shown above the spectrum; MH^+ peptide mass 2145.972 Da). […]
# Protein total mass was determined on an LCT time-of-flight mass spectrometer with electrospray ionization (ESI, Micromass). […] Theoretical masses of wild-type proteins were calculated using Protparam (http://us.expasy.org/tools/protparam.html), and theoretical masses for unnatural amino acid containing proteins were adjusted manually.
# For the analysis of the uncaging process, purified myoglobin was photolysed at 365 nm with a high power LED source module at 365 nm (Black-led-365, Prizmatix). Protein total mass was then determined as described above.
# HEK293 cells [4] = assay: Amber suppression of mCherry-TAG-egfp-ha reporter by PCKRS/PyltRNACUA; type: cell-based, human; details: PCKRS/PyltRNACUA pair, 1 mM, Western blot, versus hTyrtRNACUA
# Protocol: Adherent human embryonic kidney (HEK)-293 cells were cultured at 37° C. in a 5% CO2 atmosphere in DMEM+GlutaMAX-1 medium (Gibco) supplemented with 10% FBS and 1× pen-strep solution. Cells were transiently transfected with Genejuice (Novagen) according to the manufacturer's protocol. Double transfections were performed using equal amount of both plasmids. Before transfection, medium was replaced by fresh antibiotic-free medium supplemented, when necessary, with the unnatural amino acid (see figure legends for concentrations). Cells were analyzed 24 h after transfection. For western blot analysis, cells were washed with cold PBS, then lysed with universal lysis buffer (Roche) at 4° C. for 10 min. Western Blots were performed using antibodies against HA-tag (Sigma), Flag-tag (Cell signaling), Ds-Red (Clontech) or p53 (Abcam).
# For imaging cells expressing mCherry-TAG-EGFP-HA, cells were seeded and transfected in 24-well plates. Laser-scanning confocal microscopy was performed using a Bio-Rad Radiance 2100 system mounted on a Nikon Eclipse TE300 inverted microscope equipped with a Plan Fluor ELWD 20×/0.45 objective. Fluorescence emission was measured between 515-530 nm for EGFP (excitation wavelength: 488 nm) and above 560 nm for mCherry (excitation wavelength: 543 nm).
# HEK293 cells [5] = assay: Photo-control of p53-EGFP nuclear import, live cell imaging; type: cell-based, human; details: photolysis 5 s, 365 nm, 1.2 mW/cm^2; amino acid at position 305 of p53
# Protocol: Fluorescence confocal micrographs showing the cellular localization of the EGFP fusions of wild-type p53, p53-K305A. D. Confocal micrographs showing the cellular localization of the EGFP fusions before and 50 min after photolysis (5 s; 365 nm; 1.2 mW/cm^2).
# For live cell imaging, cells were seeded and transfected in μ-Dish (Ibidi). Live cells were imaged at room temperature with a Zeiss LSM 710 Laser Scanning Microscope equipped with a Plan Apochromat 63×/1.4 oil immersion objective. […] The mean nuclear (Fn) and cytoplasmic (Fc) fluorescence intensities were quantified using ImageJ software to enable the F(n/c) ratio to be determined according to the formula: F(n/c)=(Fn−Fb)/(Fc−Fb), where Fb is the mean background fluorescence intensity.
# MAP kinase pathway = assay: EGFP-ERK2 nuclear translocation upon EGF stimulation; type: cell-based, human; details: wild-type MEK1
# Protocol: FIG. 16 EGFP-ERK2 nuclear translocation upon EGF stimulation. (a) Montage showing EGFP-ERK2 sub-cellular fluorescence at different time points after activation of co-expressed wt-MEK1 by addition of 100 ng/ml EGF. Scale bars represent 5 μm.
# When cells expressing wild-type MEK1 and EGFP-ERK2 are stimulated with 100 ng/ml of epidermal growth factor (EGF) the entire MAP kinase pathway is activated and EGFP-ERK2 is translocated to the nucleus. […] We observe substantial cell-to-cell variability in both the t1/2 for import and the maximal ratio of nuclear to cytoplasmic EGFP-ERK2, and, as previously reported (Cohen-Saidon et al., 2009), we observe less variability in the timing of nuclear import than in the fraction of ERK2 in the nucleus following stimulation (Cohen-Saidon et al., 2009) (FIG. 16c,d). The nuclear accumulation of EGFP-ERK2 peaks and then dissipates to pre-stimulus levels, a well known effect in cellular systems known as exact adaptation (Cohen-Saidon et al., 2009). This effect is not understood in molecular detail for EGF signalling, but must involve cellular processes that compensate for EGF stimulation at some—as yet undefined—point or points in the pathway. […]
# EGFP-ERK2 = EGFP-ERK2 nuclear translocation upon photo-activation of caged MEK1, live cell imaging; type: cell-based, human; details: resting cells co-expressing EGFP-ERK2, illuminated
# Protocol: Cell culture and transfection—Human embryonic kidney 293ET cells were grown at 37° C. in 5% CO2 atmosphere in DMEM+GlutaMAX-1 medium (Gibco) supplemented with 10% fetal bovine serum (FBS) and 1× pen-strep solution for 24 hours before transfection. Cells were transiently transfected with Genejuice (Novagen) according to the manufacturer's protocol. Cells were serum-starved (DMEM with 0.1% FBS) and grown with 2 mM of the photocaged lysine 1 for 24 h before analysis. Growth medium was replaced with fresh 1-free DMEM supplemented with 0.1% FBS before photo-activation experiments.
# [6] = system: EGFP-ERK2 and endogenous ERK1/2; assay: Immunoblot of ERK, p90RSK and Elk-1 phosphorylation upon photo-activation of caged MEK1; type: cell-based, human
# Excerpt: MEK1 is highly specific for the downstream extracellular signal-regulated protein kinases ERK1 and ERK2, and has no other known substrates (Shaul and Seger, 2007). MEK1 phosphorylates two regulatory residues in ERK1/2, a threonine and a tyrosine, both part of a conserved Thr-Glu-Tyr (TEY) motif (Payne et al., 1991). To verify that the introduction of the photocaged lysine 1 prevents kinase activity, C-MEK1-ΔN was co-expressed with ERK2 fused to an enhanced green fluorescence protein (EGFP-ERK2) in resting HEK293ET cells.
# To activate C-MEK1-ΔN we illuminated cells producing the protein for one minute using a 365 nm light-emitting diode (LED) lamp placed underneath the culture plate. This method allows us to illuminate a sufficient number of cells for western blot analysis with monochromatic light that avoids sample heating. […] We observed more phosphorylated EGFP-ERK2 than phosphorylated endogenous ERK1/2. This is consistent with the fact that only a subset of cells contain EGFP-ERK2 and C-MEK1-ΔN, via transfection, while essentially all cells contain endogenous ERK1/2. […] EGFP-ERK2 levels in transfected cells are lower-than or equal to that of the endogenous ERKs. […]
molecule,measurement,setting,value
N#CC(=C(/N)Sc1ccccc1N)/C(C#N)=C(\N)Sc1ccccc1N [U0126],increase of endogenous phosphorylated p90RSK and Elk-1 after illumination,MEK1 [1],not observed
same,t1/2 of loss of EGFP nuclear fluorescence,MEK1 [2]; 10 μM added 8 min after C-MEK1-DD photoactivation,< 3 min
same,effect on EGFP-ERK2 nuclear accumulation,"MEK1 [2]; 10 μM added before illumination, C-MEK1-DD cells",significantly blocked nuclear accumulation
"CC(OC(=O)NCCCC[C@H](N)C(=O)O)c1cc2c(cc1[N+](=O)[O-])OCO2 (stereo partly drawn) [compound 1, (2S)-2-Amino-6-{([1-(6-nitrobenzo[d][1,3]dioxol-5-yl)ethoxy]carbonylamino}hexanoic acid TFA salt]",yield of sfGFP-his6 obtained by incorporation,sfGFP-his6,1 mg/L
same,decaging upon irradiation with 365 nm light,[3],efficiently decaged
same,efficiency of incorporation,HEK293 cells [4],comparable to the efficiency of incorporation of tyrosine
N[C@@H](Cc1ccc(O)cc1)C(=O)O [tyrosine],p53 localization following photolysis,HEK293 cells [5],did not localize to the nucleus
"EGF: Recombinant human epidermal growth factor, purchased from Gibco",lag phase prior to rapid nuclear accumulation of EGFP-ERK2,MAP kinase pathway; 100 ng/ml EGF,3 min
same,t1/2 of EGFP-ERK2 nuclear translocation,"MAP kinase pathway; EGF-stimulated activation of the whole pathway, 100 ng/ml",4.5 min
wt-MEK1: wild-type MEK1 [reference compound],EGFP-ERK2 nuclear translocation upon illumination,EGFP-ERK2,no nuclear translocation was observed
"D-MEK1-ΔN: dead MEK1 with deletion Δ30-49 and mutation K97M (protein, UniProt Q02750 1-393, looked up, variant del30-49 K97M, HA tag, dead MEK1 with deletion Δ30-49 and mutation K97M) Dual specificity …: MPKKKPTPIQLNPAPDGSAVNGTSSAETNLEAFLTQKQKVGELKDDDFEKISELGAGNGGVVFKVSHKPSGLVMARMLIHLEIKPAIRNQIIRELQVLHECNSPYIVGFYGAFYSDGEISICMEHMDGGSLDQVLKKAGRIPEQILGKVSIAVIKGLTYLREKHKIMHRDVKPSNILVNSRGEIKLCDFGVSGQLIDSMANSFVGTRSYMSPERLQGTHYSVQSDIWSMGLSLVEMAVGRYPIPPPDAKELELMFGCQVEGDAAETPPRPRTPGRPLSSYGMDSRPPMAIFELLDYIVNEPPPKLPSGVFSLEFQDFVNKCLIKNPAERADLKQLMVHAFIKRSDAEEVDFAGWLCSTIGLNQPSTPTHAAGV",phosphorylation of EGFP-ERK2 or endogenous ERK1/2 after illumination,[6]; 365 nm LED illumination,no detectable phosphorylation
same,endogenous phosphorylated p90RSK and Elk-1 after illumination,"[6]; resting cells co-expressing EGFP-ERK2, 60 s 365 nm",not observed
"D-MEK1-DD: catalytically dead MEK1 mutant with S218D, S222D and K97M (protein, UniProt Q02750 1-393, looked up, variant S218D S222D K97M, HA tag, catalytically dead MEK1 mutant with S218D, S222D and K97M) Dual specificity …: MPKKKPTPIQLNPAPDGSAVNGTSSAETNLEALQKKLEELELDEQQRKRLEAFLTQKQKVGELKDDDFEKISELGAGNGGVVFKVSHKPSGLVMARMLIHLEIKPAIRNQIIRELQVLHECNSPYIVGFYGAFYSDGEISICMEHMDGGSLDQVLKKAGRIPEQILGKVSIAVIKGLTYLREKHKIMHRDVKPSNILVNSRGEIKLCDFGVSGQLIDDMANDFVGTRSYMSPERLQGTHYSVQSDIWSMGLSLVEMAVGRYPIPPPDAKELELMFGCQVEGDAAETPPRPRTPGRPLSSYGMDSRPPMAIFELLDYIVNEPPPKLPSGVFSLEFQDFVNKCLIKNPAERADLKQLMVHAFIKRSDAEEVDFAGWLCSTIGLNQPSTPTHAAGV",EGFP-ERK2 nuclear translocation upon illumination,EGFP-ERK2,no nuclear translocation was observed
